{"source": "patent US20230416203A1", "about": "“POTENT AND SELECTIVE INHIBITORS OF THE CALCIUM-ACTIVATED POTASSIUM CHANNEL, KCA3.1, FOR USE AS PLATFORM THERAPEUTICS” (priority 2020, published 2023)", "assay": "Two-week non-GLP toxicology in mice (clinical signs, body weight, body weight gain, food consumption, hematology, clinical chemistry, organ weights, histopathology)", "key": {"[1]": {"details": "25 and 50 mg/kg BID, 2 weeks, mice"}, "[2]": {"details": "G2 25 mg/kg/BID oral, Treatment Day 1"}, "[3]": {"details": "G2 25 mg/kg/BID oral, Treatment Day 4"}, "[4]": {"details": "G2 25 mg/kg/BID oral, Treatment Day 8"}, "[5]": {"details": "G2 25 mg/kg/BID oral, Treatment Day 11"}, "[6]": {"details": "G2 25 mg/kg/BID oral, Treatment Day 14"}, "[7]": {"details": "G3 50 mg/kg/BID oral, Treatment Day 1"}, "[8]": {"details": "G3 50 mg/kg/BID oral, Treatment Day 4"}, "[9]": {"details": "G3 50 mg/kg/BID oral, Treatment Day 8"}, "[10]": {"details": "G3 50 mg/kg/BID oral, Treatment Day 11"}, "[11]": {"details": "G3 50 mg/kg/BID oral, Treatment Day 14"}, "[12]": {"details": "female mice, 25 mg/kg ROD oral, 2 weeks, mean"}, "[13]": {"details": "female mice, 25 mg/kg/BID oral, 2 weeks, mean"}, "[14]": {"details": "female mice, 50 mg/kg/BID oral, 2 weeks, mean"}}, "protocol": "Each group contained 6 mice. The animals were analyzed throughout the study, and blood and tissues were analyzed at the end of the study.", "data": [{"molecule": "COC(=O)C1=CNC=C(C(=O)OC)C1c1ccc(F)c(C(F)(F)F)c1", "note": "[Compound 103, Dimethyl 4-(4-fluoro-3-(trifluoromethyl)phenyl)-1,4-dihydropyridine-3,5-dicarboxylate]", "values": [{"measurement": "decrease in white blood cells (WBC)", "setting": "25 mg/kg and 50 mg/kg treated male and female mice, statistically significant", "result": "up to 3.4 fold"}, {"measurement": "Hematological assessment, other parameters", "setting": "[1]", "result": "No other toxicologically significant changes were detected"}, {"measurement": "Histopathology analysis", "setting": "[1]", "result": "did not detect any differences with controls"}, {"measurement": "Organ weights", "setting": "[1]", "result": "not altered"}, {"measurement": "gross pathology", "setting": "[1]", "result": "no obvious gross pathology"}, {"measurement": "Body weight of female mice, Mean", "setting": "[2]", "result": 20.33}, {"measurement": "Body weight of male mice, Mean", "setting": "[2]", "result": 18.30}, {"measurement": "Body weight of female mice, Mean", "setting": "[3]", "result": 21.03}, {"measurement": "Body weight of male mice, Mean", "setting": "[3]", "result": 17.65}, {"measurement": "Body weight of female mice, Mean", "setting": "[4]", "result": 21.48}, {"measurement": "Body weight of male mice, Mean", "setting": "[4]", "result": 19.12}, {"measurement": "Body weight of female mice, Mean", "setting": "[5]", "result": 21.52}, {"measurement": "Body weight of male mice, Mean", "setting": "[5]", "result": 18.95}, {"measurement": "Body weight of female mice, Mean", "setting": "[6]", "result": 21.93}, {"measurement": "Body weight of male mice, Mean", "setting": "[6]", "result": 19.27}, {"measurement": "Body weight of female mice, Mean", "setting": "[7]", "result": 20.47}, {"measurement": "Body weight of male mice, Mean", "setting": "[7]", "result": 18.75}, {"measurement": "Body weight of female mice, Mean", "setting": "[8]", "result": 20.37}, {"measurement": "Body weight of male mice, Mean", "setting": "[8]", "result": 18.63}, {"measurement": "Body weight of female mice, Mean", "setting": "[9]", "result": 21.13}, {"measurement": "Body weight of male mice, Mean", "setting": "[9]", "result": 19.52}, {"measurement": "Body weight of female mice, Mean", "setting": "[10]", "result": 21.20}, {"measurement": "Body weight of male mice, Mean", "setting": "[10]", "result": 19.32}, {"measurement": "Body weight of female mice, Mean", "setting": "[11]", "result": 21.73}, {"measurement": "Body weight of male mice, Mean", "setting": "[11]", "result": 19.85}, {"measurement": "Organ weights relative to body weight (%), Adrenals", "setting": "[12]", "result": 0.038, "unit": "%"}, {"measurement": "Organ weights relative to body weight (%), Brain", "setting": "[12]", "result": 2.217, "unit": "%"}, {"measurement": "Organ weights relative to body weight (%), Heart", "setting": "[12]", "result": 0.990, "unit": "%"}, {"measurement": "Organ weights relative to body weight (%), Kidneys", "setting": "[12]", "result": 1.379, "unit": "%"}, {"measurement": "Organ weights relative to body weight (%), Liver", "setting": "[12]", "result": 6.436, "unit": "%"}, {"measurement": "Organ weights relative to body weight (%), Ovaries", "setting": "[12]", "result": 0.077, "unit": "%"}, {"measurement": "Organ weights relative to body weight (%), Spleen", "setting": "[12]", "result": "0.672*↑ %"}, {"measurement": "Organ weights relative to body weight (%), Thymus", "setting": "[12]", "result": 0.200, "unit": "%"}, {"measurement": "Organ weights relative to body weight (%), U", "setting": "[12]", "result": 0.321, "unit": "%"}, {"measurement": "ALB", "setting": "[13]", "result": "2.60*↓ g/dL"}, {"measurement": "ALT", "setting": "[13]", "result": 40.03, "unit": "U/L"}, {"measurement": "AST", "setting": "[13]", "result": 84.12, "unit": "U/L"}, {"measurement": "BUN", "setting": "[13]", "result": 19.24, "unit": "mg/dL"}, {"measurement": "Basophils", "setting": "[13]", "result": 0.00}, {"measurement": "CREA", "setting": "[13]", "result": 0.13, "unit": "mg/dL"}, {"measurement": "Eosinophils", "setting": "[13]", "result": 0.00}, {"measurement": "GLU", "setting": "[13]", "result": 153.02, "unit": "mg/dL"}, {"measurement": "HCT", "setting": "[13]", "result": 28.87, "unit": "%"}, {"measurement": "HGB", "setting": "[13]", "result": 12.97, "unit": "g/dL"}, {"measurement": "LDLC", "setting": "[13]", "result": 9.31, "unit": "mg/dL"}, {"measurement": "Lympthocytes", "setting": "[13]", "result": 82.00}, {"measurement": "MCH", "setting": "[13]", "result": "21.10*↓ pg"}, {"measurement": "MCHC", "setting": "[13]", "result": "44.93*↓ g/dL"}, {"measurement": "MCV", "setting": "[13]", "result": "46.97*↑ fL"}, {"measurement": "Monocytes", "setting": "[13]", "result": 1.00}, {"measurement": "Neutrophils", "setting": "[13]", "result": 17.00}, {"measurement": "PLT", "setting": "[13]", "result": "616.67 10^3/μl"}, {"measurement": "RBC", "setting": "[13]", "result": 6.15}, {"measurement": "Reticuloxyte Count", "setting": "[13]", "result": 2.63}, {"measurement": "TBIL", "setting": "[13]", "result": 0.12, "unit": "mg/dL"}, {"measurement": "TGL", "setting": "[13]", "result": 48.73, "unit": "mg/dL"}, {"measurement": "TP", "setting": "[13]", "result": 4.12, "unit": "g/dL"}, {"measurement": "Urea", "setting": "[13]", "result": 41.23, "unit": "mg/dL"}, {"measurement": "WBC", "setting": "[13]", "result": "3.73*↓ 10^3/μl"}, {"measurement": "Food consumption, Average Feed Intake/Animal", "setting": "female mice, 25 mg/kg/BID oral, treatment day 1 to 4", "result": 9.4, "unit": "g/animal"}, {"measurement": "Body weight gain (%)", "setting": "female mice, 25 mg/kg/BID oral, treatment day 1 to 4, mean", "result": "−3.53", "unit": "%"}, {"measurement": "Food consumption, Average Feed Intake/Animal", "setting": "female mice, 25 mg/kg/BID oral, treatment day 1 to 8", "result": 12.8, "unit": "g/animal"}, {"measurement": "Body weight gain (%)", "setting": "female mice, 25 mg/kg/BID oral, treatment day 1 to 8, mean", "result": 4.49, "unit": "%"}, {"measurement": "Food consumption, Average Feed Intake/Animal", "setting": "female mice, 25 mg/kg/BID oral, treatment day 1 to 11", "result": 10.3, "unit": "g/animal"}, {"measurement": "Body weight gain (%)", "setting": "female mice, 25 mg/kg/BID oral, treatment day 1 to 11, mean", "result": 3.54, "unit": "%"}, {"measurement": "Food consumption, Average Feed Intake/Animal", "setting": "female mice, 25 mg/kg/BID oral, treatment day 1 to 14", "result": 9.5, "unit": "g/animal"}, {"measurement": "Body weight gain (%)", "setting": "female mice, 25 mg/kg/BID oral, treatment day 1 to 14, mean", "result": 5.27, "unit": "%"}, {"measurement": "ALB", "setting": "[14]", "result": "2.55*↓ g/dL"}, {"measurement": "ALP", "setting": "[14]", "result": 254.38, "unit": "U/L"}, {"measurement": "ALT", "setting": "[14]", "result": 55.57, "unit": "U/L"}, {"measurement": "AST", "setting": "[14]", "result": 92.78, "unit": "U/L"}, {"measurement": "BUN", "setting": "[14]", "result": 22.71, "unit": "mg/dL"}, {"measurement": "Basophils", "setting": "[14]", "result": 0.00}, {"measurement": "CREA", "setting": "[14]", "result": 0.12, "unit": "mg/dL"}, {"measurement": "Eosinophils", "setting": "[14]", "result": 0.00}, {"measurement": "GLU", "setting": "[14]", "result": 165.87, "unit": "mg/dL"}, {"measurement": "HCT", "setting": "[14]", "result": 28.73, "unit": "%"}, {"measurement": "HGB", "setting": "[14]", "result": 13.67, "unit": "g/dL"}, {"measurement": "LDLC", "setting": "[14]", "result": 8.23, "unit": "mg/dL"}, {"measurement": "Lympthocytes", "setting": "[14]", "result": 84.00}, {"measurement": "MCH", "setting": "[14]", "result": 21.23, "unit": "pg"}, {"measurement": "MCHC", "setting": "[14]", "result": "45.37*↓ g/dL"}, {"measurement": "MCV", "setting": "[14]", "result": "46.83*↑ fL"}, {"measurement": "Monocytes", "setting": "[14]", "result": 1.33}, {"measurement": "Neutrophils", "setting": "[14]", "result": 14.67}, {"measurement": "PLT", "setting": "[14]", "result": "733.00 10^3/μl"}, {"measurement": "RBC", "setting": "[14]", "result": 6.14}, {"measurement": "Reticuloxyte Count", "setting": "[14]", "result": 2.67}, {"measurement": "TBIL", "setting": "[14]", "result": 0.14, "unit": "mg/dL"}, {"measurement": "TGL", "setting": "[14]", "result": 59.97, "unit": "mg/dL"}, {"measurement": "TP", "setting": "[14]", "result": 3.89, "unit": "g/dL"}, {"measurement": "Urea", "setting": "[14]", "result": 48.65, "unit": "mg/dL"}, {"measurement": "WBC", "setting": "[14]", "result": "2.17*↓ 10^3/μl"}, {"measurement": "Food consumption, Average Feed Intake/Animal", "setting": "female mice, 50 mg/kg/BID oral, treatment day 1 to 4", "result": 9.1, "unit": "g/animal"}, {"measurement": "Body weight gain (%)", "setting": "female mice, 50 mg/kg/BID oral, treatment day 1 to 4, mean", "result": "−0.68", "unit": "%"}, {"measurement": "Food consumption, Average Feed Intake/Animal", "setting": "female mice, 50 mg/kg/BID oral, treatment day 1 to 8", "result": 12.8, "unit": "g/animal"}, {"measurement": "Body weight gain (%)", "setting": "female mice, 50 mg/kg/BID oral, treatment day 1 to 8, mean", "result": 4.10, "unit": "%"}, {"measurement": "Food consumption, Average Feed Intake/Animal", "setting": "female mice, 50 mg/kg/BID oral, treatment day 1 to 11", "result": 8.7, "unit": "g/animal"}, {"measurement": "Body weight gain (%)", "setting": "female mice, 50 mg/kg/BID oral, treatment day 1 to 11, mean", "result": 3.03, "unit": "%"}, {"measurement": "Food consumption, Average Feed Intake/Animal", "setting": "female mice, 50 mg/kg/BID oral, treatment day 1 to 14", "result": 9.8, "unit": "g/animal"}]}]}
